Data on two compounds can be found in patent US12514836B2, “Composition for prevention and treatment of myopathy” (ONCOCROSS CO., LTD., priority 2020, dated 2026).

One test deals with MHC and myogenin. Kind of test: Western blot of myoblast differentiation markers in C2C12 cells. The test is classed as cell-based, mouse. The following applies: 500 μM H2O2, vs DMSO group, FIG. 4. The method, then:
(§1) At this time, 500 μM of H2O2 (hydrogen peroxide) was treated with the differentiation medium to create conditions for inhibiting differentiation. Thereafter, the differentiation medium containing H2O2 and the drugs were exchanged every 2 days. After 4 to 6 days, when the shape of myotubes was confirmed, the myotubes were added with 80 μl of a lysis buffer and then vortexed, and centrifuged for 10 minutes at 14000 rpm, and the obtained proteins were added with a 5× sample buffer and reacted in 95° C. boiling water for 5 minutes. 8 μg of the reacted proteins was loaded on 8% and 12% SDS-PAGE gels, developed, and then transferred to a membrane. The membrane was blocked with PBST containing 5% skim milk at room temperature for 1 hour. The membrane was washed with 1×PBST, added with a primary antibody diluted at 1:1000, and then O/N reacted at 4° C. The next day, the membrane was washed with 1×PBST three times every 10 minutes, added with a secondary antibody diluted at 1:5000 in PBST containing 5% skim milk, and then reacted at room temperature for 1 hour. The membrane was washed with 1×PBST three times every 10 minutes, reacted in an enhanced chemiluminescent solution (ECL), and then exposed to an X-ray film to obtain a Western blot analysis result.

In another test the test system is p70S6K. In words: Western blot of AKT/mTOR pathway sub-signal p70S6K in C2C12 cells. The format is cell-based, mouse. The settings on record: 10 μM, 500 μM H2O2, FIG. 4. The method, then:
as §1

The test system of a further test is SOD1 G93A mice. In words: Duration of life of Lou Gehrig (ALS) animal model mice. The format is in vivo, mouse. From the text:
The presence of symptoms and mortality were confirmed through a daily behavioral test set.

For test [1], the system named is MSCs derived from MDX mice. Kind of test: Proliferation of muscle satellite cells (MSCs) derived from MDX mice. The format is cell-based, mouse. The following applies: 100 μM, 48 hours, vs PBS control, FIG. 6. An excerpt:
In MDX mice (Jackso lab, stock no. 001801) (including point mutations in a DMD gene), as the most popular experimental model for testing Duchenne muscular dystrophy, older MDX mice over 40 weeks of age that maintained a homogenous transgenic state through mating and breeding and wild-type mice (normal mice) were anesthetized with isoflurane and then both tibialis anterior (TA) muscles were punctured 30 times each with a 26 G syringe (Korea Vaccine, Cat no. 27-00024-01) to induce physical muscle destruction. On day 3 after inducing muscle destruction, the mice were sacrificed and the TA muscles were separated, washed with 1×PBS (137 mM NaCl, 2.7 mM KCl, 10 mM Na2HPO4, […]) twice, and then chopped for 5 minutes with a razor blade, added in serum-free DMEM (GE healthcare, Cat no. SH30243.01) diluted with collagenase II (ThermoFisher, Cat no. 17101015) to a concentration of 2 mg/ml and digested for 1 hour. Thereafter, a supernatant was removed by centrifugation at 300×g for 5 minutes, washed once with serum-free DMEM, and passed through a 70 μm strainer. […] In the experiment, the average and each standard deviation of measurement results of three or more times were obtained, and significance with the control was determined through T testing (*: […].<0.001).

The subject of the next test is 4-EBP. Kind of test: Western blot of AKT/mTOR pathway sub-signal 4-EBP in C2C12 cells. The test is classed as cell-based, mouse. The following applies: 10 μM, 500 μM H2O2, FIG. 4. The protocol: as §1
A further test has as its system C2C12 cells. Kind of test: Myoblast differentiation of C2C12 cells seen by microscope under differentiation-suppressing condition (H2O2). The test is classed as cell-based, mouse. The following applies: 10 μM, 500 μM H2O2, FIG. 3.

Each structure is given as a SMILES string.

For `CN(C)CCOC(c1ccccc1)c1ccccc1.Cn1c(=O)c2[nH]c(Cl)nc2n(C)c1=O` [OC-501, dimenhydrinate], the “expression levels of MHC and myogenin” value in the test with MHC and myogenin (5 μM) was “increased”; in the test on MHC and myogenin (10 μM) it was “increased”.

On to `CC(C)(CO)[C@@H](O)C(=O)NCCC(=O)O` [OC-504, calcium pantothenate], for which the “expression of P70S6K” value in the test on p70S6K was “increased”. Also, the “expression levels of MHC and myogenin” value with MHC and myogenin (10 μM) is given as “increased”. In the test on SOD1 G93A mice (30 mpk (combination each 30 mpk), intraperitoneally from 10 weeks old, FIG. 1), the “total median duration of life compared to the drug non-administered group” value was “increased statistically significantly”. Besides, in the test on SOD1 G93A mice (30 mpk intraperitoneally from 10 weeks old, non-administered group about 5 weeks, FIG. 2), the “prolongation of median duration of life after the appearance of Lou Gehrig's symptoms” value is “about 2 weeks”. Also, the “prolongation of duration of life converted to Lou Gehrig's patients” value in the test on SOD1 G93A mice (extrapolated: 5 weeks in mice taken as about 2 years median duration of life in patients) is listed as “about 9.6 months”. Also, in test [1], the “proliferation of MSCs derived from MDX mice” value was “significantly promoted”. In the test on 4-EBP, the “expression of 4-EBP compared to the control group (DMSO)” value is “increased”. In addition, the myoblast differentiation result in the test on C2C12 cells is listed as “significantly increased”.
